The test system of assay [1] is Penicillium decumbens. Nature of the assay: Inhibition of Penicillium decumbens alpha-L-rhamnosidase at 100 uM using p-nitrophenyl-glycoside as substrate by spectrophotometric method.
Assay [2] concerns Prunus dulcis. Nature of the assay: Inhibition of almond beta-glucosidase at 100 uM using p-nitrophenyl-glycoside as substrate by spectrophotometric method.
The species entered for assay [3] is Bos taurus. Nature of the assay: Inhibition of bovine liver beta-glucosidase at 100 uM using p-nitrophenyl-glycoside as substrate by spectrophotometric method.
Assay [4] can be described thus: Inhibition of human lysosomal beta-glucosidase using 4-methylumbelliferyl-beta-D-glucopyranoside as substrate preincubated for 45 mins followed by substrate addition measured after 30 mins by fluorescence spectrophotometric method.
In assay [5] the test system is Oryza sativa. Nature of the assay: Inhibition of rice alpha-glucosidase at 100 uM using p-nitrophenyl-glycoside as substrate by spectrophotometric method.
The species entered for assay [6] is Rattus norvegicus. In words: Inhibition of rat intestinal maltase assessed as D-glucose level at 100 uM using maltose as substrate measured after 10 to 30 mins.
Another assay deals with T1, Beta-galactosidase (Bos taurus, UniProt Q58D55).
T1 sequence (Q58D55 whole entry): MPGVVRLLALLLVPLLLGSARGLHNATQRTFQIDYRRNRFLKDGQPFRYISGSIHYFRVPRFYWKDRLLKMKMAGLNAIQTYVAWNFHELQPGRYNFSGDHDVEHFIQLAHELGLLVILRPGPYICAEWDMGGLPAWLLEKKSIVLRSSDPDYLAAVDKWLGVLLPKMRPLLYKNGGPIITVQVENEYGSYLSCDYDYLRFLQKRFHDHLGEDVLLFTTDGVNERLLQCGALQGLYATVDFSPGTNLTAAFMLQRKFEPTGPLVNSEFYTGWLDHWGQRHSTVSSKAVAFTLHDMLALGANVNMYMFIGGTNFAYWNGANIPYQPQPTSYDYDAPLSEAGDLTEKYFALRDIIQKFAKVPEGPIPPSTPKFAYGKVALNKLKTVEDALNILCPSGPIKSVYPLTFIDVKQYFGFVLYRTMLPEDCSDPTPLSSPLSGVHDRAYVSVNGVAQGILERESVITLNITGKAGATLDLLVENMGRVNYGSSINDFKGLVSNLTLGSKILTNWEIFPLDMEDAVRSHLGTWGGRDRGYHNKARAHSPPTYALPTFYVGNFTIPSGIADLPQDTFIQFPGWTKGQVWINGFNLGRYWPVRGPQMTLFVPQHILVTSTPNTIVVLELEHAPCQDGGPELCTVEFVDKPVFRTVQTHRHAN
In words: Inhibition of bovine liver beta-galactosidase using p-nitrophenyl-glycoside as substrate by spectrophotometric method.

Assay [7] deals with Aspergillus niger. In words: Inhibition of Aspergillus niger amyloglucosidase assessed as D-glucose level at 100 uM using maltose as substrate measured after 10 to 30 mins.
For assay [8], the target named is T2, Tissue alpha-L-fucosidase (Bos taurus) (UniProt Q2KIM0).
T2 sequence (whole entry): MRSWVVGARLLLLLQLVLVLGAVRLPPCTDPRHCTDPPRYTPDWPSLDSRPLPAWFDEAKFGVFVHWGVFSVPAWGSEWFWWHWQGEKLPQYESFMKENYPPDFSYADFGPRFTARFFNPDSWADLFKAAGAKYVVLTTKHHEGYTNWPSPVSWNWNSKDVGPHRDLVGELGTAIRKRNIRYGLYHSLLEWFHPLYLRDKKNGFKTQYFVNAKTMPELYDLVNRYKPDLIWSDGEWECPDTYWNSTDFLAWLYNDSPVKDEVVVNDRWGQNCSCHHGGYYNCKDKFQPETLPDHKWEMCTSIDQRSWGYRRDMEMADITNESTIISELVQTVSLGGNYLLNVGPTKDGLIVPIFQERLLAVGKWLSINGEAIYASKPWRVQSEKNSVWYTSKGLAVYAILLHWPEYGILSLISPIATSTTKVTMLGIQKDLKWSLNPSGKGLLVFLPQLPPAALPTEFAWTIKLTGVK
In words: Inhibition of bovine kidney alpha-L-fucosidase at 100 uM using p-nitrophenyl-glycoside as substrate by spectrophotometric method.

For assay [9], the target named is T3, Uncharacterized protein (Sus scrofa) (UniProt I3LIR5).
T3 sequence (whole entry): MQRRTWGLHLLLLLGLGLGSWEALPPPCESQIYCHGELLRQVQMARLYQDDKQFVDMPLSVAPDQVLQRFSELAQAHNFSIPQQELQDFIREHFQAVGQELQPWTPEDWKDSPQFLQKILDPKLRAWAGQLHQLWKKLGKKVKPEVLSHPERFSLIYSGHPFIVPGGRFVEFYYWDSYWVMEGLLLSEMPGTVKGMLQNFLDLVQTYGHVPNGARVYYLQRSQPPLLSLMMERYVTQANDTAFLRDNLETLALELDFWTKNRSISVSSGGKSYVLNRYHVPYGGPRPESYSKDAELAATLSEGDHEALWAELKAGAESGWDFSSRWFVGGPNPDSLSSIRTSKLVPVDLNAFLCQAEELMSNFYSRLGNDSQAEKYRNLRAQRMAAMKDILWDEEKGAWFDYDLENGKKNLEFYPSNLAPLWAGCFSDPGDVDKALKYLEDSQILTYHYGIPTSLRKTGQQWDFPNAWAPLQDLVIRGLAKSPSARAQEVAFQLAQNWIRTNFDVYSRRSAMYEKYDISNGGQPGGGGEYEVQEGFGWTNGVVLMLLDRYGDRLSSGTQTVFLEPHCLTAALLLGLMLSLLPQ
Nature of the assay: Inhibition of porcine kidney trehalase assessed as D-glucose level at 100 uM using maltose as substrate measured after 10 to 30 mins.

The test system of assay [10] is Escherichia coli. Nature of the assay: Inhibition of Escherichia coli beta-glucuronidase at 100 uM using p-nitrophenyl-glycoside as substrate by spectrophotometric method.
Assay [11] in a line: Inhibition of bovine liver beta-glucosidase using p-nitrophenyl-glycoside as substrate by spectrophotometric method. On the set-up: species or system Bos taurus.
The nature of assay [12]: Inhibition of Penicillium decumbens alpha-L-rhamnosidase using p-nitrophenyl-glycoside as substrate by spectrophotometric method.
The species named for a further assay is Homo sapiens. In words: Inhibition of human lysosomal beta-glucosidase at 100 uM using 4-methylumbelliferyl-beta-D-glucopyranoside as substrate preincubated for 45 mins followed by substrate addition measured after 30 mins by fluorescence spectrophotometric method.
The target in assay [13] is T4, Beta-galactosidase (Bos taurus) (UniProt Q58D55).
T4 sequence (whole entry): T1 sequence (Q58D55 whole entry)
Nature of the assay: Inhibition of bovine liver beta-galactosidase at 100 uM using p-nitrophenyl-glycoside as substrate by spectrophotometric method.

For assay [14], the system named is Prunus dulcis. In words: Inhibition of almond beta-glucosidase at 1000 uM using p-nitrophenyl-glycoside as substrate by spectrophotometric method.
For assay [15], the species on record is Bos taurus. In words: Inhibition of bovine liver beta-glucosidase at 1000 uM using p-nitrophenyl-glycoside as substrate by spectrophotometric method.
Assay [16] relates to Aspergillus niger. Nature of the assay: Inhibition of Aspergillus niger amyloglucosidase assessed as D-glucose level at 1000 uM using maltose as substrate measured after 10 to 30 mins.
The subject of assay [17] is Oryza sativa. In words: Inhibition of rice alpha-glucosidase at 1000 uM using p-nitrophenyl-glycoside as substrate by spectrophotometric method.
The species named for assay [18] is Rattus norvegicus. Nature of the assay: Inhibition of rat intestinal maltase assessed as D-glucose level at 1000 uM using maltose as substrate measured after 10 to 30 mins.
The target in assay [19] is T4, Beta-galactosidase (Bos taurus). Nature of the assay: Inhibition of bovine liver beta-galactosidase at 1000 uM using p-nitrophenyl-glycoside as substrate by spectrophotometric method.
For assay [20], the target named is T2, Tissue alpha-L-fucosidase (Bos taurus). In words: Inhibition of bovine kidney alpha-L-fucosidase at 1000 uM using p-nitrophenyl-glycoside as substrate by spectrophotometric method.
Assay [21] has as its target T3, Uncharacterized protein (Sus scrofa). In words: Inhibition of porcine kidney trehalase assessed as D-glucose level at 1000 uM using maltose as substrate measured after 10 to 30 mins.
Assay [22] deals with Escherichia coli. In words: Inhibition of Escherichia coli beta-glucuronidase at 1000 uM using p-nitrophenyl-glycoside as substrate by spectrophotometric method.
The test system of assay [23] is Penicillium decumbens. Nature of the assay: Inhibition of Penicillium decumbens alpha-L-rhamnosidase at 1000 uM using p-nitrophenyl-glycoside as substrate by spectrophotometric method.

A word on the inhibition: it is the drop in the measured response relative to a control, in per cent. In general, IC50 refers to the midpoint of a concentration-inhibition curve. As to `CCCCCCCCCCNC(=S)N1[C@H](CO)[C@@H](O)[C@H](O)[C@H]1CO`, the inhibition in the assay with Penicillium decumbens [1], in the assay on Prunus dulcis [2], in the assay listed under Bos taurus [3], in the assay with Oryza sativa [5], in the assay listed under Rattus norvegicus [6] and in the assay on Aspergillus niger [7] was < 50% throughout. In addition, the inhibition (in assay [8]; in [9]; in the assay with Escherichia coli [10]) was < 50% throughout. In addition, the IC50 in assay [4] was found to be 0.74 µM; against Beta-galactosidase, 100 µM.
For `CCCCCCCCCC/N=C1/SC[C@@H]2[C@@H](O)[C@H](O)[C@@H](CO)N12`, the inhibition (in the assay on Penicillium decumbens [1]; in the assay with Prunus dulcis [2]; with Oryza sativa [5]; in the assay filed under Rattus norvegicus [6]; in the assay on Aspergillus niger [7]; in assay [8]) was < 50% in each case. For the same compound, the inhibition (in assay [9]; with Escherichia coli [10]) was < 50% each time. Besides, the IC50 worked out at 63 µM in assay [11], 1 µM in [4] and 93 µM at Beta-galactosidase.
As to `CCCCCCCCCCNC(=S)N1[C@@H](CO)[C@H](O)[C@@H](O)[C@@H]1CO`, the inhibition (with Penicillium decumbens [1]; in the assay with Prunus dulcis [2]; in the assay on Oryza sativa [5]; in the assay listed under Rattus norvegicus [6]; with Aspergillus niger [7]; in [8]) was < 50% throughout. The inhibition (in [9]; in the assay with Escherichia coli [10]) was < 50% throughout. For the same compound, the IC50 came out at 16 µM in assay [11], 65 µM in [4] and 61 µM against Beta-galactosidase.
As for `OC[C@H]1[C@H](O)[C@@H](O)[C@@H]2CS/C(=N/CCCc3ccccc3)N12`, half-maximal inhibition in [12] (IC50) was put at 6.8 µM. The inhibition (with Prunus dulcis [2]; in the assay filed under Bos taurus [3]; in the assay on Oryza sativa [5]; in the assay filed under Rattus norvegicus [6]; in the assay on Aspergillus niger [7]; in assay [8]) was < 50% each time. Moreover, the inhibition (in assay [9]; in the assay filed under Homo sapiens; in the assay with Escherichia coli [10]; in assay [13]) was < 50% each time.
Regarding `CCCCCCCCCCCCNC(=S)N1[C@@H](CO)[C@H](O)[C@@H](O)[C@@H]1CO`, the inhibition (in the assay with Penicillium decumbens [1]; in the assay with Prunus dulcis [2]; in the assay on Oryza sativa [5]; in the assay filed under Rattus norvegicus [6]; in the assay with Aspergillus niger [7]; in [8]) was < 50% each time. In addition, the inhibition (in assay [9]; in the assay on Escherichia coli [10]) was < 50% throughout. Besides, the values for the IC50 (in assay [11]; in assay [4]; against Beta-galactosidase) were 36 µM, 73 µM and 30 µM, respectively.
In turn, `OC[C@H]1[C@H](O)[C@@H](O)[C@@H]2CS/C(=N/CCCCCc3ccccc3)N12` showed an IC50 in [12] of 1.8 µM. Besides, the inhibition (with Prunus dulcis [2]; in the assay listed under Bos taurus [3]; in the assay with Oryza sativa [5]; in the assay listed under Rattus norvegicus [6]; in the assay on Aspergillus niger [7]; in assay [8]) was < 50% in each case. The inhibition (in assay [9]; in the assay listed under Homo sapiens; in the assay on Escherichia coli [10]; in [13]) was < 50% each time.
Compound `OC[C@H]1[C@H](O)[C@@H](O)[C@@H]2CS/C(=N/Cc3ccccc3)N12` registered an IC50 in assay [12] of 2.2 µM. Besides, the inhibition (in the assay on Prunus dulcis [2]; in the assay listed under Bos taurus [3]; in the assay on Oryza sativa [5]; in the assay listed under Rattus norvegicus [6]; in the assay with Aspergillus niger [7]; in assay [8]) was < 50% in each case. Also, the inhibition (in assay [9]; in the assay filed under Homo sapiens; with Escherichia coli [10]; in assay [13]) was < 50% throughout.
For the compound `CCCCCC/N=C1/SC[C@@H]2[C@@H](O)[C@H](O)[C@@H](CO)N12`, the IC50 in [12] came out at 494 µM; in assay [4], 16 µM. Further, the inhibition (in the assay with Prunus dulcis [14]; in the assay filed under Bos taurus [15]; with Aspergillus niger [16]; in the assay with Oryza sativa [17]; in the assay filed under Rattus norvegicus [18]; in assay [19]) was < 50% throughout. Moreover, the inhibition (in [20]; in [21]; in the assay on Escherichia coli [22]) was < 50% in each case.
As for `CCCC/N=C1/SC[C@@H]2[C@@H](O)[C@H](O)[C@@H](CO)N12`, the inhibition in the assay with Penicillium decumbens [23], in the assay on Prunus dulcis [14], in the assay filed under Bos taurus [15], in the assay with Aspergillus niger [16], in the assay with Oryza sativa [17] and in the assay filed under Rattus norvegicus [18] was < 50% each time. For the same compound, the inhibition (in assay [19]; in assay [20]; in [21]; with Escherichia coli [22]) was < 50% throughout. The IC50 in assay [4] came to 532 µM.
For the compound `CCCCCCCCCCCCNC(=S)N1[C@H](CO)[C@@H](O)[C@H](O)[C@H]1CO`, the inhibition (with Penicillium decumbens [1]; with Prunus dulcis [2]; with Oryza sativa [5]; in the assay filed under Rattus norvegicus [6]; with Aspergillus niger [7]; in assay [8]) was < 50% in each case. The inhibition (in [9]; with Escherichia coli [10]) was < 50% in each case. In addition, the IC50 in assay [11] worked out at 23 µM; in assay [4] it was 0.16 µM; at Beta-galactosidase, 24 µM.

For the origin of these results see ChEMBL document CHEMBL3868599, “Strategy for designing selective α-l-rhamnosidase inhibitors: Synthesis and biological evaluation of l-DMDP cyclic isothioureas” (Bioorg Med Chem, 2017).
